Columns and labels:
[1] = target: T1, human full length PIK3KA H1047R mutant (p110α/p85α complex) (Homo sapiens, UniProt P42336, H1047R); assay: PI3K-Alpha Kinase (PIK3CA) biochemical activity, H1047R mutant (ADP-Glo); conditions: 20 uM ATP
T1 construct: Recombinant, catalytically active human full length PIK3KA Wild-type and H1047R mutant were purchased; 6xHis (N); purchased EMD Millipore Sigma 14-792M
Method in brief: (§1)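 ADP formation, measured by ADP-Glo luminescence after reaction to about 10% ATP conversion at 27° C., gives 10-point 4-parameter IC50 curves normalized to no-enzyme and DMSO controls. Lipid substrate was PIP2diC8 or Soy PI at 50 uM, with 20 uM ATP. WT or H1047R p110α/p85α complex (1-5 nM) was preincubated 1 h with compound.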

[2] = target: T2, human full length PIK3KA Wild-type (p110α/p85α complex) (Homo sapiens, UniProt P42336); assay: PI3K-Alpha Kinase (PIK3CA) biochemical activity, wild-type (ADP-Glo); conditions: 20 uM ATP
T2 construct: Recombinant, catalytically active human full length PIK3KA Wild-type and H1047R mutant were purchased; 6xHis (N); purchased EMD Millipore Sigma 14-602M
Method in brief: as §1

T1 sequence (P42336 whole entry H1047R): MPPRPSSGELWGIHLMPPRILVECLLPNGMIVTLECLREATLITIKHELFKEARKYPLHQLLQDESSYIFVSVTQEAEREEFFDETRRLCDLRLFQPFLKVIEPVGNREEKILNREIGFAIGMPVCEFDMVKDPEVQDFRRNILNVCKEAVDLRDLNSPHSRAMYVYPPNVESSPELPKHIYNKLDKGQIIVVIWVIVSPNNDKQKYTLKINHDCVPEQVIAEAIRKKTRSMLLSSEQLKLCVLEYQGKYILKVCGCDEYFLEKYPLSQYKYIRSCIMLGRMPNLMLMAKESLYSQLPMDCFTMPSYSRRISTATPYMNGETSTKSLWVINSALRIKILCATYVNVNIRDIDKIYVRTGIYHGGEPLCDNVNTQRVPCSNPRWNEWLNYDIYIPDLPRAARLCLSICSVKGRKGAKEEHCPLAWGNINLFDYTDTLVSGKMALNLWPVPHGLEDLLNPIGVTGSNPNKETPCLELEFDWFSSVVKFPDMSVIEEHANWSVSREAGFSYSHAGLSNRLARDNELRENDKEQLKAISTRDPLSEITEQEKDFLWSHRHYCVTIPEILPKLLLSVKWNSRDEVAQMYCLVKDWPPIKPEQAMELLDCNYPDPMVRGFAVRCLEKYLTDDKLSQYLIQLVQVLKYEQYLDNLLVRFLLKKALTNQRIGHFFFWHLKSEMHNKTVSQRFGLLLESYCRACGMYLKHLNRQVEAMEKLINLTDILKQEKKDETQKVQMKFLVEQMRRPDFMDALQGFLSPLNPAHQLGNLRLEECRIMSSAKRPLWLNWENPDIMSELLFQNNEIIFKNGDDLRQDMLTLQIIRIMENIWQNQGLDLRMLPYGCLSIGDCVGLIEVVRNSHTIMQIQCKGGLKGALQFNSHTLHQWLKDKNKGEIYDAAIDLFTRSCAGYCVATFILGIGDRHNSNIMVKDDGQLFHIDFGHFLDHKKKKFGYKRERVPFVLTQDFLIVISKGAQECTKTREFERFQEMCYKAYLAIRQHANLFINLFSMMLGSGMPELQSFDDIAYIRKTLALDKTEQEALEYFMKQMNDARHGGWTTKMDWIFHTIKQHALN
T1 sequence (P27986 whole entry partner): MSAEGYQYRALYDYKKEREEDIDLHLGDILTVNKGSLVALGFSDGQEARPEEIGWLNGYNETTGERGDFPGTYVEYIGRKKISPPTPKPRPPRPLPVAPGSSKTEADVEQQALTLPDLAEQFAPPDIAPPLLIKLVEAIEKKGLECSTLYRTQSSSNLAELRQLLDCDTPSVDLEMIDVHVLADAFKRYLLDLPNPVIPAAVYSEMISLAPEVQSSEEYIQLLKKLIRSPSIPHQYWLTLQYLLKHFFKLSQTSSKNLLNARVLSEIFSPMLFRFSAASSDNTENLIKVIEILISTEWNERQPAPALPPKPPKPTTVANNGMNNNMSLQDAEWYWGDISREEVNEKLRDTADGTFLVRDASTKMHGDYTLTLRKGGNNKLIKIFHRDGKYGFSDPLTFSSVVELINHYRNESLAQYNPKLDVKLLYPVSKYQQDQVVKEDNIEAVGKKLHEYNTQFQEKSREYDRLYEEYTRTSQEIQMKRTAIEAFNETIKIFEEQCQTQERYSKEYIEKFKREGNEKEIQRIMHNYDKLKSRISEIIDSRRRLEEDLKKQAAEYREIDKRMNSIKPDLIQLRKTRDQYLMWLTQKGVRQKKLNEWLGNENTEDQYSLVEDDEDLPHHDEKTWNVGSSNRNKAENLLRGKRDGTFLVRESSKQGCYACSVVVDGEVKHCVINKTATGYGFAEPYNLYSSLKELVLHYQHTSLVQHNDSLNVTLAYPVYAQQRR

| IC50 ([1]; Soy PI lipid substrate) [nM] | IC50 ([2]; Soy PI lipid substrate) [nM] | IC50 ([1]; PIP2diC8 lipid substrate) [nM] | IC50 ([2]; PIP2diC8 lipid substrate) [nM] | Structure (SMILES) |
| --- | --- | --- | --- | --- |
| < 500 | 1000 to 5000 | – | – | Cc1cc(C(C)Nc2ccccc2C(=O)O)c2oc(-c3cnn(-c4cccnc4)c3)cc(=O)c2c1 (single isomer, unassigned; isomer 2) [Example 50, 2-[1-[6-Methyl-4-oxo-2-[1-(3-pyridyl)pyrazol-4-yl]chromen-8-yl]ethylamino]benzoic acid, Isomer 2] |
| 1000 to 5000 | > 10000 | – | – | COC(=O)c1ccccc1NC(C)c1cc(C)cc2c(=O)cc(-c3c[nH]c(=O)cn3)oc12 (single isomer, unassigned; isomer 2) [Example 56, Methyl 2-[1-[6-methyl-4-oxo-2-(6-oxo-1H-pyrazin-3-yl)chromen-8-yl]ethylamino]benzoate, Isomer 2] |
| < 500 | 5000 to 10000 | – | – | Cc1cc(C(C)Nc2ccccc2C(=O)O)c2oc(-c3cccc(C(F)F)n3)cc(=O)c2c1 (single isomer, unassigned; isomer 2) [Example 71, 2-[1-[2-[6-(Difluoromethyl)-2-pyridyl]-6-methyl-4-oxo-chromen-8-yl]ethylamino]benzoic acid, Isomer 2] |
| < 500 | > 10000 | – | – | Cc1cc(C(C)Nc2ccccc2C(=O)O)c2oc(-c3nnc(-c4ccc(C#N)cc4)o3)cc(=O)c2c1 (single isomer, unassigned; isomer 2) [Example 90, 2-[1-[2-[5-(4-Cyanophenyl)-1,3,4-oxadiazol-2-yl]-6-methyl-4-oxo-chromen-8-yl]ethylamino]benzoic acid, Isomer 2] |
| < 500 | 1000 to 5000 | – | – | COc1cccc(-n2cc(-c3cc(=O)c4cc(C)cc(C(C)Nc5ccccc5C(=O)O)c4o3)nn2)c1 (single isomer, unassigned; isomer 2) [Example 98, 2-[1-2-[1-(3-Methoxyphenyl)triazol-4-yl]-6-methyl-4-oxo-chromen-8-yl]ethylamino]benzoic acid, Isomer 2] |
| – | – | 500 to 1000 | 1000 to 5000 | Cc1cc(C(C)Nc2ccccc2C(=O)O)c2oc(-c3cnn(C)c3)cc(=O)c2c1 (stereo not drawn) [Example 47, 2-[1-[6-Methyl-2-(1-methylpyrazol-4-yl)-4-oxo-chromen-8-yl]ethylamino]benzoic acid] |
| < 500 | 5000 to 10000 | – | – | Cc1cc(C(C)Nc2ccccc2C(=O)O)c2oc(-c3cnn(-c4cccnc4)c3)cc(=O)c2c1 (stereo not drawn) [Example 48, 2-[1-[6-Methyl-4-oxo-2-[1-(3-pyridyl)pyrazol-4-yl]chromen-8-yl]ethylamino]benzoic acid 2,2,2-trifluoroacetic acid] |
| < 500 | > 10000 | – | – | Cc1cc(C(C)Nc2cccc(F)c2C(=O)O)c2oc(-c3ccccn3)cc(=O)c2c1 (stereo not drawn) [Example 100, 2-Fluoro-6-[1-[6-methyl-4-oxo-2-(2-pyridyl)chromen-8-yl]ethylamino]benzoic acid 2,2,2-trifluoroacetic acid] |
| < 500 | 500 to 1000 | – | – | Cc1cc(C(C)Nc2cccc(F)c2C(=O)O)c2oc(-c3cnn(-c4ccc(C#N)cc4)c3)cc(=O)c2c1 (stereo not drawn) [Example 101, 2-[1-[2-[1-(4-Cyanophenyl)pyrazol-4-yl]-6-methyl-4-oxo-chromen-8-yl]ethylamino]-6-fluoro-benzoic acid 2,2,2-trifluoroacetic acid] |

Continued, molecule first:

| Structure (SMILES) | IC50 ([1]; Soy PI lipid substrate) [nM] | IC50 ([2]; Soy PI lipid substrate) [nM] | IC50 ([1]; PIP2diC8 lipid substrate) [nM] | IC50 ([2]; PIP2diC8 lipid substrate) [nM] |
| --- | --- | --- | --- | --- |
| Cc1cc(C(C)Nc2ccccc2C(=O)O)c2oc(-c3ccc(S(C)(=O)=O)nc3)cc(=O)c2c1 (single isomer, unassigned; isomer 2) [Example 40, 2-[1-[6-Methyl-2-(6-methylsulfonyl-3-pyridyl)-4-oxo-chromen-8-yl]ethylamino]benzoic acid, Isomer 2] | < 500 | > 10000 | – | – |
| Cc1cc(C(C)Nc2ccccc2C(=O)O)c2oc(-c3ccc(OC(C)C)nc3)cc(=O)c2c1 (stereo not drawn) [Example 1, 2-[1-[2-(6-Isopropoxy-3-pyridyl)-6-methyl-4-oxo-chromen-8-yl]ethylamino]benzoic acid 2,2,2-trifluoroacetic acid] | 500 to 1000 | > 10000 | – | – |
| COc1ncc(-c2cc(=O)c3cc(C)cc(C(C)Nc4ccccc4C(=O)O)c3o2)cn1 (stereo not drawn) [Example 2, 2-[1-[2-(2-Methoxypyrimidin-5-yl)-6-methyl-4-oxo-chromen-8-yl]ethylamino]benzoic acid 2,2,2-trifluoroacetic acid] | < 500 | 5000 to 10000 | – | – |
| Cc1cc(C(C)Nc2ccccc2C(=O)O)c2oc(-c3cnc(OC(C)C)nc3)cc(=O)c2c1 (stereo not drawn) [Example 6, 2-[1-[2-(2-Isopropoxypyrimidin-5-yl)-6-methyl-4-oxo-chromen-8-yl]ethylamino]benzoic acid 2,2,2-trifluoroacetic acid] | < 500 | > 10000 | – | – |
| Cc1cc(C(C)Nc2ccccc2C(=O)O)c2oc(-c3ccc(S(C)(=O)=O)nc3)cc(=O)c2c1 (stereo not drawn) [Example 7, 2-[1-[6-Methyl-2-(6-methylsulfonyl-3-pyridyl)-4-oxo-chromen-8-yl]ethylamino]benzoic acid 2,2,2-trifluoroacetic acid] | < 500 | > 10000 | – | – |
| Cc1cc(C(C)Nc2ccccc2C(=O)O)c2oc(-c3ccc(C(F)(F)F)nc3)cc(=O)c2c1 (stereo not drawn) [Example 8, 2-[1-[6-Methyl-4-oxo-2-[6-(trifluoromethyl)-3-pyridyl]chromen-8-yl]ethylamino]benzoic acid 2,2,2-trifluoroacetic acid] | < 500 | 5000 to 10000 | – | – |
| Cc1cc(C(C)Nc2ccccc2C(=O)O)c2oc(-c3ccc(F)nc3)cc(=O)c2c1 (stereo not drawn) [Example 9, 2-[1-[2-(6-Fluoro-3-pyridyl)-6-methyl-4-oxo-chromen-8-yl]ethylamino]benzoic acid 2,2,2-trifluoroacetic acid] | < 500 | 5000 to 10000 | – | – |
| Cc1cc(C(C)Nc2ccccc2C(=O)O)c2oc(-c3cc(C#N)ccn3)cc(=O)c2c1 (stereo not drawn) [Example 10, 2-[1-[2-(4-Cyano-2-pyridyl)-6-methyl-4-oxo-chromen-8-yl]ethylamino]benzoic acid 2,2,2-trifluoroacetic acid] | 500 to 1000 | 1000 to 5000 | – | – |
| COc1cccc(-c2cc(=O)c3cc(C)cc(C(C)Nc4ccccc4C(=O)O)c3o2)n1 (stereo not drawn) [Example 11, 2-[1-[2-(6-Methoxy-2-pyridyl)-6-methyl-4-oxo-chromen-8-yl]ethylamino]benzoic acid 2,2,2-trifluoroacetic acid] | < 500 | 500 to 1000 | – | – |
| COc1ccc(-c2cc(=O)c3cc(C)cc(C(C)Nc4ccccc4C(=O)O)c3o2)cn1 (stereo not drawn) [Example 12, 2-[1-[2-(6-Methoxy-3-pyridyl)-6-methyl-4-oxo-chromen-8-yl]ethylamino]benzoic acid 2,2,2-trifluoroacetic acid] | < 500 | 1000 to 5000 | – | – |
| Cc1cc(C(C)Nc2ccccc2C(=O)O)c2oc(-c3cnc(C)nc3)cc(=O)c2c1 (stereo not drawn) [Example 13, 2-[1-[6-Methyl-2-(2-methylpyrimidin-5-yl)-4-oxo-chromen-8-yl]ethylamino]benzoic acid 2,2,2-trifluoroacetic acid] | 500 to 1000 | > 10000 | – | – |
| Cc1cc(C(C)Nc2ccccc2C(=O)O)c2oc(-c3ccc(F)cn3)cc(=O)c2c1 (stereo not drawn) [Example 23, 2-[1-[2-(5-Fluoro-2-pyridyl)-6-methyl-4-oxo-chromen-8-yl]ethylamino]benzoic acid 2,2,2-trifluoroacetic acid] | < 500 | 5000 to 10000 | – | – |

— patent publication US20230014445A1, “ALLOSTERIC CHROMENONE INHIBITORS OF PHOSPHOINOSITIDE 3-KINASE (PI3K) FOR THE TREATMENT OF DISEASE” (Petra Pharma Corporation, priority 2021, published 2023)
